Reference: patent publication US6355619B1, “Peptide tumor cell growth inhibitors” (Board of Regents, The University of Texas System, priority 1996, dated 2002)

Columns and labels:
[1] = biological target: T1, MIP2β binding to human neutrophils (Homo sapiens, UniProt P25025); assay: Binding of radioiodinated MIP2β to human neutrophils; settings: 1 nM MIP2β
T1 construct: endogenous in cells; host or cells: human neutrophils
Experimental: FIG. 10. Ac-RRWWCX (SEQ ID NO:23) Inhibits Binding of GRO and MIP2β to human neutrophils. Radioiodinated MIP2β and GRO/MGSA were mixed with various concentration of Ac-RRWWCR-NH2 and incubated at room temperature for 15 min. Neutrophil suspension (1×10^6 cells in 160 μl PBS containing 0.1% BSA) was added to 40 μl of the mixture and incubated for 90 min on ice. The radioactivity bound to the cells was separated from free radioactivity by centrifugation through an oil layer. The % binding inhibition was calculated as follows: [formula]
MIP2β and GRO/MGSA were radioiodinated using Bolten Hunter reagent. The radioiodinated components were mixed with various concentration of the Ac-RRWWCX-NH2 (SEQ ID NO:23) peptide and incubated at room temperature for 15 min. Neutrophil suspension (1×10^6 cells in 160 μl PBS containing 0.1% BSA) was added to 40 μl of the mixture and incubated for 90 min on ice. The radioactivity bound to the cells was separated from free radioactivity by centrifugation through an oil layer. The bound radioactivity is an indication of bound CXC intercrine peptide. The % binding inhibition in the presence of Ac-RRWWCX-NH2 (SEQ ID NO:23) was calculated as follows: [formula]
where B is bound radioactivity in the presence of the peptide, T is bound radioactivity in the absence of the peptide, and NSP is bound radioactivity in the presence of excess nonlabeled ligand.

[2] = test system: fMLP-induced neutrophil chemotaxis; assay: Neutrophil chemotaxis stimulated by fMLP; format: cell-based, human; settings: 10 nM fMLP
Experimental: FIG. 7. The Effect of Ac-RRWWCR-NH2 (SEQ ID NO:1) on Neutrophil Chemotaxis. Chemotaxis was performed in the presence of increasing concentration of Ac-RRWWCR-NH2 (SEQ ID NO:1) in both upper and lower chamber. Stimulants added to lower chamber were 10 nM IL-8 (●), 10 nM fMLP (▪), or media alone (◯) as control. Analysis of variance was used for multiple comparison.
Chemotaxis was performed using the leading front method as described by Zigmond and Hirsh (1973). IL-8 or controls were placed in the lower well of a Boyden chamber. A five micron pore size, 100 μm. thick cellulose nitrate filter (Sartorius Filter,. Inc., San Francisco, Calif.) was placed on the surface and the chamber was then assembled. A 200 μl aliquot of the neutrophil preparation (1×10^6 cells/ml) in RPMI-1640 media containing 1% BSA was added to the top of the filter and incubated at 37° C. for 30 min. The filter was then fixed, stained and mounted on a glass microscope slide. The leading front was determined by the position of the leading two cells. The distance that the leading two cells had moved through the filter was measured for six fields on each filter. The measurements were made with four filters for each set of conditions.

[3] = test system: fMLP-stimulated neutrophil enzyme release; assay: β-glucuronidase release from neutrophils stimulated by fMLP; format: cell-based, human; settings: 100 nM fMLP
Experimental: (§1) FIG. 8. The Effect of Ac-RRWWCR-NH2 (SEQ ID NO:1) on β-glucuronidase Release. Neutrophils pretreated with cytochalasin B were incubated with 100 nM IL-8 (●), 100 nM fMLP (▪), 100 nM C5a (_) or 100 nM leukotriene B4 ? or without any stimulant (◯) in the presence of increasing concentration of Ac-RRWWCR-NH2 (SEQ ID NO:1) for 30 min at 37° C. β-glucuronidase activity of supernatants were measured using phenolphthalein-glucuronic acid as substrate. Analysis of variance was used for multiple comparison.
(§2) Neutrophil enzyme release was studied by a modification of the method of Goldstein and colleagues (Goldstein et al., 1973). Cytochalasin B (Sigma Chemical Co.) was stored in dimethyl sulfoxide at a concentration of 5 mg/ml and was diluted to a concentration of 50 μg/ml in Hank's Balanced Salt Solution (HBSS) immediately before use. Cytochalasin B, 200 μl, was added to 1 ml of suspension of neutrophils, 6.25×10^6 cells/ml in HBSS, to achieve a final cytochalasin B concentration of […]. The solution was then incubated in 96 well plates at room temperature for 10 min. The stimulant, 100 μl, was added, and this cell suspension was incubated for 30 min at 37° C. The plates were centrifuged and 100 μl of supernatant was removed. […] After 16 hr incubation at 37° C., 200 μl of 0.2 M Glycine in 0.2 M NaCl, pH10.4 was added to each well and OD540 was measured as the enzyme activity.

[4] = test system: C5a-stimulated neutrophil enzyme release; assay: β-glucuronidase release from neutrophils stimulated by C5a; format: cell-based, human; settings: 100 nM C5a
Experimental: as §1, §2

[5] = test system: leukotriene B4-stimulated neutrophil enzyme release; assay: β-glucuronidase release from neutrophils stimulated by leukotriene B4; format: cell-based, human; settings: 100 nM leukotriene B4
Experimental: as §1, §2

[6] = test system: SP2/o mouse myeloma cell lines; assay: Growth of SP2/o myeloma cells stimulated by murine interleukin-6; format: cell-based
C8161 melanoma cells = assay: Tumor cell growth, C8161; format: cell-based
human neutrophils = assay: Binding of the peptide to human neutrophils

T1 sequence (P25025 whole entry): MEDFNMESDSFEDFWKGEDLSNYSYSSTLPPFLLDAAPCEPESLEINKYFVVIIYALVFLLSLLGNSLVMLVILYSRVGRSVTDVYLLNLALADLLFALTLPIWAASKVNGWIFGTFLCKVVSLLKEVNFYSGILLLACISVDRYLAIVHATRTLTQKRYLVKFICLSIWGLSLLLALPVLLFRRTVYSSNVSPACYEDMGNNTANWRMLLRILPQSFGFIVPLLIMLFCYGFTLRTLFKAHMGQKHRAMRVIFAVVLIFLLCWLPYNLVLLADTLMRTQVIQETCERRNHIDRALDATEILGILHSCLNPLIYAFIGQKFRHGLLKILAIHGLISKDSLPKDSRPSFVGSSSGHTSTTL

## RRWWCR [Ac-RRWWCR-NH2]
[1]; listed as Ac-RRWWCX-NH2
  effect on binding of MIP2β to neutrophils: effectively suppress the binding
[1]; listed as Antileukinate
  effect on binding of MIP2β to neutrophils: suppressed the binding
[2]
  effect on chemotaxis induced by fMLP: had no effect on chemotaxis
[3]
  effect on enzyme release stimulated by fMLP: did not affect the enzyme release
[4]
  effect on enzyme release stimulated by C5a: did not affect the enzyme release
[5]
  effect on enzyme release stimulated by leukotriene B4: did not affect the enzyme release
[6]
  effect on growth of SP2/o mouse myeloma cell lines: did not affect the growth
C8161 melanoma cells
  effect on cell growth: suppresses the growth
Human neutrophils
  binding of the peptide to human neutrophils: binds to human neutrophils
